From patent publication US20180111893A1, “POLYCATIONIC AMPHIPHILES AND POLYMERS THEREOF AS ANTIMICROBIAL AGENTS AND METHODS USING SAME” (Temple University-Of The Commonwealth System of Higher …, priority 2015, published 2018)

Tested on: Staphylococcus aureus (SA; MSSA SH1000)
Assay: Minimum inhibitory concentration (MIC)
Format: cell-based
Conditions: Table 6
Protocol: (§1) As used herein, the term “minimum inhibitory concentration (MIC)” refers to the lowest concentration of an antimicrobial agent that will inhibit the visible growth of a microorganism after overnight incubation. MIC values against bacteria, for example, the Gram-positive Staphylococcus aureus and Enterococcus faecalis and the Gram-negative Escherichia coli and Pseudomonas aeruginosa were determined by standard methods. See also P. A. Wayne, Methods for Dilution Antimicrobial Tests for Bacteria that Grow Aerobically; Approved Standard, Ninth Edition, 2012, CLSI Document M07-A9, Vol. 32 No. 2, which is incorporated by reference herein in its entirety.
(§2) Compounds were serially diluted two-fold from a 10% DMSO/aqueous stock solution to yield twelve test concentrations. Overnight S. aureus, E. faecalis, E. coli, P. aeruginosa, CA-MRSA, and HA-MRSA cultures diluted to ca. 10^6 cfu/mL in Mueller-Hinton media and 100 μL were inoculated into each well of a U-bottom 96-well plate (BD Biosciences, BD351177) containing 100 μL of compound solution. Plates were incubated statically at 37° C. for 72 hours upon which time wells were evaluated visually for bacterial growth. The MIC was determined as the lowest concentration of compound resulting in no bacterial growth visible to the naked eye, based on the majority of three independent experiments. Positive and negative DMSO/aqueous solution and media controls were conducted for each trial. See Peng et al., 2011, Chem. Comm. 47:4896-4898.
as §2, with “trial.” for “trial. See Peng et al., 2011, Chem. Comm. 47:4896-4898.”

SMILES | MIC SA [µM]
CCCCCCCCCCCCCCCC[N+](C)(C)CCCN(CCC[N+](C)(C)CCCCCCCCCCCCCCCC)CCC[N+](C)(C)CCCCCCCCCCCCCCCC.[Br-].[Br-].[Br-] [sT-16,16,16,0] | 8

Tested on: community-acquired methicillin-resistant Staphylococcus aureus CA-MRSA (USA300-0114)
Assay: Minimum inhibitory concentration (MIC)
Format: cell-based
Conditions: Table 6
Protocol: as §1, §2
as §2, with “trial.” for “trial. See Peng et al., 2011, Chem. Comm. 47:4896-4898.”

SMILES | MIC CA-MRSA [µM]
CCCCCCCCCCCCCCCC[N+](C)(C)CCCN(CCC[N+](C)(C)CCCCCCCCCCCCCCCC)CCC[N+](C)(C)CCCCCCCCCCCCCCCC.[Br-].[Br-].[Br-] [sT-16,16,16,0] | 4

Same assay, conditions: dye-based QACs

SMILES | MIC against CA-MRSA [µM]
CCCCCCCCCCCCCCCC[N+](CC)(CC)c1ccc(N(c2ccc(N(CC)CC)cc2)c2ccc(N(CC)CC)cc2)cc1 [TET-16,0,0] | 250
CCCCCCCCCCCCCCCC[N+](CC)(CC)c1ccc(N(c2ccc([N+](C)(CC)CC)cc2)c2ccc([N+](C)(CC)CC)cc2)cc1 [TET-16,1,1] | 0.5

Same assay, conditions: dye-based QACs; bacteria with vs without efflux pumps

SMILES | increase in MIC against CA-MRSA compared to SA [fold]
CCCCCCCCCC[N+](C)(C)c1ccc(C(c2ccc([N+](C)(C)C)cc2)c2ccc([N+](C)(C)C)cc2)cc1 [LCV-10,1,1] | 32

Same assay, conditions: dye-based QACs; in words

SMILES | difference in MIC/activity between SA and CA-MRSA
CCCCCCCCCCCCCCCC[N+](CC)(CC)c1ccc(N(c2ccc([N+](C)(CC)CC)cc2)c2ccc([N+](C)(CC)CC)cc2)cc1 [TET-16,1,1] | no difference in activity

Same assay, conditions: dye-based monoQACs; in words

SMILES | potency against CA-MRSA
CCCCCCCCCC[N+](C)(C)c1ccc(C(c2ccccc2)c2ccc(N(C)C)cc2)cc1 (centres unmarked) [LMG-10,0] | quite potent
CCCCCCCCCCC[N+](C)(C)c1ccc(C(c2ccccc2)c2ccc(N(C)C)cc2)cc1 (centres unmarked) [LMG-11,0] | quite potent

Same assay, conditions: monocationic n,0,0 vs triscationic n,1,1

SMILES | difference in MIC of monoQAC versus triscationic analog against CA-MRSA
CCCCCCCCCCCCCCCCCC[N+](C)(C)c1ccc(C(c2ccc(N(C)C)cc2)c2ccc(N(C)C)cc2)cc1 [LCV-18,0,0] | same differential
CCCCCCCCCCCCCCCC[N+](CC)(CC)c1ccc(N(c2ccc(N(CC)CC)cc2)c2ccc(N(CC)CC)cc2)cc1 [TET-16,0,0] | 500 ×

Tested on: Enterococcus faecalis (OG1RF)
Assay: Minimum inhibitory concentration (MIC)
Format: cell-based
Conditions: Table 6
Protocol: as §1, §2
as §2, with “trial.” for “trial. See Peng et al., 2011, Chem. Comm. 47:4896-4898.”

SMILES | MIC EF [µM]
CCCCCCCCCCCCCCCC[N+](C)(C)CCCN(CCC[N+](C)(C)CCCCCCCCCCCCCCCC)CCC[N+](C)(C)CCCCCCCCCCCCCCCC.[Br-].[Br-].[Br-] [sT-16,16,16,0] | 16

Tested on: Escherichia coli (MC4100)
Assay: Minimum inhibitory concentration (MIC)
Format: cell-based
Conditions: Table 6
Protocol: as §1, §2
as §2, with “trial.” for “trial. See Peng et al., 2011, Chem. Comm. 47:4896-4898.”

SMILES | MIC EC [µM]
CCCCCCCCCCCCCCCC[N+](C)(C)CCCN(CCC[N+](C)(C)CCCCCCCCCCCCCCCC)CCC[N+](C)(C)CCCCCCCCCCCCCCCC.[Br-].[Br-].[Br-] [sT-16,16,16,0] | 16

Tested on: Pseudomonas aeruginosa (PAO1)
Assay: Minimum inhibitory concentration (MIC)
Format: cell-based
Conditions: Table 6
Protocol: as §1, §2
as §2, with “trial.” for “trial. See Peng et al., 2011, Chem. Comm. 47:4896-4898.”

SMILES | MIC PA [µM]
CCCCCCCCCCCCCCCC[N+](C)(C)CCCN(CCC[N+](C)(C)CCCCCCCCCCCCCCCC)CCC[N+](C)(C)CCCCCCCCCCCCCCCC.[Br-].[Br-].[Br-] [sT-16,16,16,0] | 32

Tested on: hospital-acquired methicillin-resistant Staphylococcus aureus HA-MRSA (ATCC 33591)
Assay: Minimum inhibitory concentration (MIC)
Format: cell-based
Conditions: Table 6
Protocol: as §1, §2
as §2, with “trial.” for “trial. See Peng et al., 2011, Chem. Comm. 47:4896-4898.”

SMILES | MIC HA-MRSA [µM]
CCCCCCCCCCCCCCCC[N+](C)(C)CCCN(CCC[N+](C)(C)CCCCCCCCCCCCCCCC)CCC[N+](C)(C)CCCCCCCCCCCCCCCC.[Br-].[Br-].[Br-] [sT-16,16,16,0] | 16
